Paper PMC9738192, “Lupane Triterpene Derivatives Improve Antiproliferative Effect on Leukemia Cells through Apoptosis Induction” (Molecules, 2022)
Converted amounts (≈) assume the structure as drawn. One block for each compound: values may come before it.

Key:
[1] = tested on: HL60 cell line; assay: Bioassay of viability in leukemic cell lines (DAPI, flow cytometry); assay type: cell-based, human; settings: for IC50: Homo sapiens, HL-60, HL60, 48 h
Text: (§1) Chronic myeloid leukemia (K562; ATCC CCL-243), acute myeloid leukemia (HL60; ATCC CCL-240), and green monkey kidney cells (Vero, ATCCCCL-81) from the American Type Culture Collection (ATCC) were provided by María Antonieta Chávez Gónzalez from Unidad de Investigación Oncológica, Hospital de Oncología, Centro Médico Nacional, Instituto Mexicano del Seguro Social (IMSS, Ciudad de México, México). The K562 cell line was maintained with RPMI medium at 10% FBS, the HL60 cell line was maintained with IMDM medium at 20% FBS, and the VERO cell line was maintained with DMEM medium at 10% FBS; 1% penicillin-streptomycin was added to both cell lines and incubated at an atmosphere of culture with 95% humidity and 5% CO2 at 37 °C. All evaluation was performed between 4 and 5 cell passages.
(§2) In all cases, medium with DMSO (0.1%) was used as a negative control, and etoposide was used as positive control for K562, HL60, Vero cell lines, and normal MNC. All tests were carried out in triplicate.
(§3) A total of 2 × 10^5 cells/well were cultured into 24-well plates and treated with different concentrations of four compounds (0.1, 1, 10, and 100 μg/mL) for 48 h. At the end of this time, the cells were collected and stained with 4′,6-diamidino-2-phenylindole dihydrochloride (DAPI) at 500 ng/mL for 30 min, according to manufacturer instructions, for 15 min in darkness. The samples were then analyzed by flow cytometry using a CytoFlex flow cytometer (Beckman Coulter, Indianapolis, IN, USA).
(§4) All cytometric data were analyzed using FlowJo^TM v10.6 software. Results of viability are expressed as the concentration of agent that reduces cell growth by 50% (IC50), calculated by GraphPad Prism 5 software. The data were expressed as means ± SEM. Statistical significance was calculated with a one-way analysis of variance (ANOVA) followed by Dunnett’s post-hoc test, applying a p < 0.05 significance level.

[2] = tested on: K562 cell line; assay: as above; assay type: cell-based, human; settings: for IC50: Homo sapiens, K562, 48 h
Text: as §1, §2, §3, §4

[3] = tested on: Vero cell line; assay: Bioassay of viability in Vero cell line (SRB); assay type: cell-based, green monkey; settings: Chlorocebus sabaeus; Vero normal cell line, 48 h
Text: as §1
The cells (1 × 10^4 cells/well) were seeded onto 96-well plates and incubated at 37 °C and 5% CO2 until reaching 70–80% confluence. The medium was replaced with fresh medium containing the […] different concentrations (0.1, 1, 10, and 100 μg/mL) of compounds for 48 h. After 100 μL of 10% trichloroacetic acid were added to each well, and cells were incubated for 30 min at 4 °C. Then the supernatant was removed, 100 μL of sulforhodamine B (SRB) at 0.1% with 1% of acetic acid were added, and incubated again for 15 min. Subsequently, washings were carried out with 1% acetic acid; and finally, the dye was solubilized with 200 uL of tris-base at 10 mM; and the optical density was measured at 560 nm using a GloMax spectrophotometer (Promega, WI, USA).
as §4

[4] = tested on: peripheral blood mononuclear cells (MNC); assay: Viability test in normal mononuclear cells (DAPI, flow cytometry); assay type: cell-based; settings: Homo sapiens, PBMC, 48 h
Description: Normal mononuclear cells were obtained from normal human peripheral blood monocytes and donated by the corresponding author (Moo-Puc) of the manuscript submitted. The MNC was purified with FicollPaque Plus (Pharmacia Biotech, Uppsala, Sweden) by centrifugation at 400× g at room temperature for 30 min according to the manufacturer’s protocol. Once the MNC were obtained, they were resuspended in RPMI medium (ATCC) with 10% FBS, and they were counted using a hemocytometer, previously stained with a trypan blue solution, verifying the viability of 95% [61].
Cells were plated at 2 × 10^5 cells/well in 24-well plates and incubated with different concentrations of compounds T1m (0.1, 1, 10, and 100 μg/mL) for 48 h. RPMI with 10% FBS was used as a culture medium for cell growth. After this time, cells were collected, washed with PBS, and stained with DAPI at 500 ng/mL for 30 min, according to manufacturer instructions. Cells analysis was carried out in a CytoFlex flow cytometer (Beckman Coulter, Indianapolis, IN, USA).
All cytometric data were analyzed using FlowJo^TM v10.6 software. […] The data were expressed as means ± SEM. Statistical significance was calculated with a one-way analysis of variance (ANOVA) followed by Dunnett’s post-hoc test, applying a p < 0.05 significance level.

[5] = tested on: K562 cells; assay: Cell cycle assay (DAPI, flow cytometry); assay type: cell-based, human
Description: One million cells of K562 were cultured in 12-well plates and incubated for 18, 24, and 48 h with compound T1m at two different concentrations (19.5 and 39.0 μg/mL). After this time, the cells were collected and centrifuged at 300× g at room temperature for 5 min. The cells were resuspended in PBS, added absolute ethanol on ice, and incubated for 1 h at 4 °C. After that. Cells were centrifuged at 300× g at 4 °C for 5 min. Next, cells were washed with PBS 3% FBS and permeabilized for 20 min with 0.1% triton. After, the cells were stained with DAPI at 500 ng/mL for 1 h. After this procedure, cells were analyzed using […]. Cells analysis was carried out in an Attune flow cytometer (Thermo Fisher Scientific, Carlsbad, CA, USA).

[6] = tested on: K562 cells; assay: Apoptosis assay (annexin V-FITC / 7-AAD); assay type: cell-based, human
Description: Cells (2 × 10^5) were cultured in 24-well plates and treated with compound T1m at two different concentrations (19.5 and 39.0 µg/mL), to later be incubated for 18, 24, and 48 h. After this time, cells were washed with PBS and stained with annexin V-FITC and 7-AAD apoptosis kit (BD Bioscience) and incubated in the dark for 15 min. Then they were analyzed by CytoFlex flow cytometry (Beckman Coulter, Indianapolis, IN, USA).

[7] = tested on: K562 cell line; assay: Assessment of intracellular reactive oxygen species (CM-H2DCFDA); assay type: cell-based, human
Description: Cells (1× 10^5) were cultured in 12-well plates and were stained with 10 μM of chloromethyl 2′,7′-dichlorodihydrofluorescein diacetate (CM-H2DCFDA) for 30 min at 37 °C. Briefly, the cells were treated with compound 1m at two different concentrations (19.5 and 39.0 µg/mL) and control (H2O2 at 50 µM) to later be incubated for 2 and 4 h. After this time, cells were analyzed using CytoFlex flow cytometry (Beckman Coulter, Indianapolis, IN, USA).

[8] = tested on: K562 cell line; assay: Assessment of mitochondrial membrane potential (rhodamine 123); assay type: cell-based, human; settings: 18 h, Rho-123
Description: Cells (1× 10^5) were cultured in 12-well plates and treated with compound 1m at two different concentrations (19.5 and 39.0 µg/mL), to later be incubated for 18 h. After this time, cells were stained with 5 μM of rhodamine 123 (Rho-123) and incubated for 30 min at 37 °C. Briefly, cells were washed with PBS and analyzed using a Cytoflex flow cytometer (Beckman Coulter, Indianapolis, IN, USA).

SMILES: C=C(C)[C@@H]1CC[C@]2(C(=O)O)CC[C@]3(C)C(CCC4[C@@]5(C)CC[C@@H](OC(C)=O)[C@](C)(CO)C5CC[C@]43C)C12 (stereo partly drawn) [Compound T1Ac, 3α-acetyl-24-hydroxylup-20(29)-en-28-oic acid]
IC50 [1]: > 100 µg/mL
IC50 [2]: > 100 µg/mL
IC50 [3]: > 200 µg/mL

IC50 [1]: 1.3 ± 0.3 µg/mL (≈ 2.21 µM)
IC50 [2]: 14.7 ± 1.2 µg/mL (≈ 25 µM)
SMILES: COc1cc([C@@H]2c3cc4c(cc3[C@@H](O[C@@H]3O[C@@H]5CO[C@@H](C)O[C@H]5[C@H](O)[C@H]3O)[C@H]3COC(=O)[C@H]23)OCO4)cc(OC)c1O [Etoposide, etoposide, reference compound]
selectivity index (IS) ([1]; IC50 MNC over IC50 HL60): > 76.92
selectivity index (IS) ([1]; IC50 Vero over IC50 HL60): 22.63
selectivity index (IS) ([2]; IC50 MNC over IC50 K562): > 6.80
selectivity index (IS) ([2]; IC50 Vero over IC50 K562): 2.00
IC50 [3]: 29.4 ± 1.1 µg/mL (≈ 50 µM)
IC50 [4]: > 100 µg/mL
G2 population ([5]; K562, 14.7 μg/mL, 18 h, positive control): increase
apoptotic cell population (positive annexin V-FITC) ([6]; K562, positive control, 18 h): 13.34 ± 0.04%
apoptotic cell population (positive annexin V-FITC) ([6]; K562, positive control, 24 h): 17.91 ± 0.06%
apoptotic cell population (positive annexin V-FITC) ([6]; K562, positive control, 48 h): 32.60 ± 0.55%
ROS increase vs negative control ([7]; K562, positive control, 2 h): six-fold

SMILES: OO [Compound H2O2, H2O2, reference compound]
ROS increase vs negative control ([7]; K562, damage control (50 µM), 2 h): seven-fold

SMILES: C=C(C)[C@@H]1CC[C@]2(C(=O)OC)CC[C@]3(C)C(CCC4[C@@]5(C)CC[C@H]6OC(C)(C)OC[C@@]6(C)C5CC[C@]43C)C12 (stereo partly drawn) [Compound T2COOMe, methyl ester of 3α,23-O-isopropylidenyl-3α,23-dihydroxylup-20(29)-en-28-oic acid]
IC50 [1]: > 100 µg/mL
IC50 [2]: > 100 µg/mL
IC50 [3]: > 200 µg/mL

SMILES: C=C(C)[C@@H]1CC[C@]2(C(=O)O)CC[C@]3(C)C(CCC4[C@@]5(C)CC[C@@H](O)[C@](C)(CO)C5CC[C@]43C)C12 (stereo partly drawn) [Compound T1, 3α,24-dihydroxylup-20(29)-en-28-oic acid]
IC50 [1]: > 100 µg/mL
IC50 [2]: 100 ± 1 µg/mL (≈ 212 µM)
selectivity index (IS) ([2]; IC50 Vero over IC50 K562): 1.37
IC50 [3]: 137.2 ± 1.1 µg/mL (≈ 290 µM)

SMILES: C=C(C)[C@@H]1CC[C@]2(C(=O)O)CC[C@]3(C)C(CCC4[C@@]5(C)CC[C@H]6OC(C)(C)OC[C@@]6(C)C5CC[C@]43C)C12 (stereo partly drawn) [Compound T2, 3α,23-O-isopropylidenyl-3α,23-dihydroxylup-20(29)-en-28-oic acid]
IC50 [1]: > 100 µg/mL
IC50 [2]: > 100 µg/mL
IC50 [3]: > 200 µg/mL

SMILES: C=C(C)[C@@H]1CC[C@]2(C(=O)O)CC[C@]3(C)C(CCC4[C@@]5(C)CC[C@@H](OC)[C@](C)(CO)C5CC[C@]43C)C12 (stereo partly drawn) [Compound T1m, 3α-methoxy-24-hydroxylup-20(29)-en-28-oic acid]
IC50 [1]: 68.6 ± 1.2 µg/mL (≈ 141 µM)
selectivity index (IS) ([1]; IC50 MNC over IC50 HL60): 1.26
IC50 [2]: 39.5 ± 1.1 µg/mL (≈ 81.1 µM)
selectivity index (IS) ([2]; IC50 MNC over IC50 K562): 2.19
selectivity index (IS) ([2]; IC50 Vero over IC50 K562): 1.69
IC50 [3]: 66.8 ± 1 µg/mL (≈ 137 µM)
IC50 [4]: 86.5 ± 1.2 µg/mL (≈ 178 µM)
cell cycle distribution vs negative control ([5]; K562, 19.5 μg/mL, 18 h): No difference
sub-G0 population ([5]; K562, 39.0 μg/mL, 18 h): 7.29 ± 0.05%
sub-G0 population ([5]; K562, 39.0 μg/mL, 24 h): 13.30 ± 1.20%
sub-G0 population ([5]; K562, at IC50 (39.0 μg/mL), 48 h): 85.85 ± 0.15%
apoptotic cell population (positive annexin V-FITC) ([6]; K562, 19.5 μg/mL, 48 h): 11.91 ± 1.04%
apoptotic cell population (positive annexin V-FITC) ([6]; K562, 39.0 μg/mL, 18 h): 12.50 ± 0.65%
apoptotic cell population (positive annexin V-FITC) ([6]; K562, 39.0 μg/mL, 48 h): 27.47 ± 1.23%
apoptotic cell population (positive annexin V-FITC) ([6]; K562, at IC50 (39.0 μg/mL), 24 h): 24.35 ± 1.04%
ROS increase vs negative control ([7]; K562, 19.5 μg/mL, 2 h): five-fold
ROS increase vs negative control ([7]; K562, 19.5 μg/mL, 4 h): six-fold
ROS increase vs negative control ([7]; K562, 39.0 μg/mL, 2 h): seven-fold
ROS increase vs negative control ([7]; K562, 39.0 μg/mL, 4 h): nine-fold
MMP (mitochondrial membrane potential) compared with negative control ([8]; K562, 19.5 μg/mL): approximately 45%
MMP (mitochondrial membrane potential) compared with negative control ([8]; K562, 39.0 μg/mL): 67%
